ChEMBL document CHEMBL5136977, “Discovery of 1-(5-(1H-benzo[d]imidazole-2-yl)-2,4-dimethyl-1H-pyrrol-3-yl)ethan-1-one derivatives as novel and potent bromodomain and extra-terminal (BET) inhibitors with anticancer efficacy” (Eur J Med Chem, 2022)
The source made the active and inactive calls. No cut-off for these calls is given here.

Key:
[1] = tested on: MV4-11; assay: Induction of cell cycle arrest in human MV4-11 cells assessed as downregulation of c-myc expression incubated for 24 hrs by Western blotting analysis; type: functional, cell-based; conditions: dose 62.5-250 nM, DDE = dose-dependent effect
[2] = Metabolic stability in dog liver microsomes assessed as elimination half life incubated for 1 hr by LC-MS/MS analysis; type: ADME, Canis lupus familiaris, Microsome; conditions: read-out: beta t1/2
[3] = Metabolic stability in rat liver assessed as intrinsic clearance incubated for 1 hr by LC-MS/MS analysis; type: ADME, tissue-based; conditions: read-out: CLH
[4] = Half life in Sprague-Dawley rat at 10 mg/kg, po by LC-MS/MS analysis; type: ADME, organism-based; conditions: in vivo
[5] = tested on: MDA-MB-468; assay: Antiproliferative activity against human MDA-MB-468 cells assessed as cell growth inhibition measured after 72 hrs by CellTiter-Glo assay; type: functional
[6] = tested on: UACC-62; assay: Antiproliferative activity against human UACC-62 cells assessed as cell growth inhibition measured after 72 hrs by CellTiter-Glo assay; type: functional
[7] = tested on: MV4-11; assay: Induction of cell cycle arrest in human MV4-11 cells assessed as accumulation of cells at S phase at 100 nM incubated for 48 hrs by propidium iodide staining based flow cytometric analysis (reference value: 26.29%); type: functional
[8] = C0 in Sprague-Dawley rat at 1 mg/kg, iv by LC-MS/MS analysis; type: ADME, organism-based; conditions: in vivo
[9] = tested on: HL-60(TB); assay: Antiproliferative activity against human HL-60(TB) cells assessed as cell growth inhibition measured after 72 hrs by CellTiter-Glo assay; type: functional
[10] = Induction of cell apoptosis in human MV4-11 cells assessed as early apoptotic cells at 1000 nM incubated for 48 hrs by Annexin V-FITC/Propidium iodide staining based flow cytometry analysis (reference value: 1.42%); type: functional
[11] = Clearance in Sprague-Dawley rat at 1 mg/kg, iv by LC-MS/MS analysis; type: ADME, organism-based; conditions: in vivo
[12] = Induction of cell apoptosis in human MV4-11 cells assessed as late apoptotic cells at 1000 nM incubated for 48 hrs by Annexin V-FITC/Propidium iodide staining based flow cytometry analysis (reference value: 1.99%); type: functional
[13] = Metabolic stability in monkey liver microsomes assessed as intrinsic clearance incubated for 1 hr by LC-MS/MS analysis; type: ADME, Macaca mulatta, Microsome; conditions: rhesus monkey, read-out: CLH
[14] = Metabolic stability in rat liver microsomes assessed as elimination half life incubated for 1 hr by LC-MS/MS analysis; type: ADME, Microsome; conditions: read-out: beta t1/2
[15] = Induction of cell apoptosis in human MV4-11 cells assessed as […] cells at 200 nM incubated for 48 hrs by Annexin V-FITC/Propidium iodide staining based flow cytometry analysis (reference value: 96.6%); type: functional
[16] = Half life in Sprague-Dawley rat at 1 mg/kg, iv by LC-MS/MS analysis; type: ADME, organism-based; conditions: in vivo
[17] = Induction of cell apoptosis in human MV4-11 cells assessed as early apoptotic cells at 500 nM incubated for 48 hrs by Annexin V-FITC/Propidium iodide staining based flow cytometry analysis (reference value: 1.42%); type: functional
[18] = Metabolic stability in rat liver microsomes assessed as intrinsic clearance incubated for 1 hr by LC-MS/MS analysis; type: ADME, Microsome; conditions: read-out: CLH
[19] = AUC (0 to infinity) in Sprague-Dawley rat at 10 mg/kg, po by LC-MS/MS analysis; type: ADME, organism-based; parameters: time infinity, dose 10 mg/kg, route po; conditions: in vivo
[20] = tested on: MV4-11; assay: Induction of cell apoptosis in human MV4-11 cells assessed as upregulation of cleaved PARP level at 62.5 to 250 nM incubated for 24 hrs by Western blotting analysis; type: functional, cell-based; conditions: dose 62.5-250 nM
[21] = Metabolic stability in dog liver assessed as intrinsic clearance incubated for 1 hr by LC-MS/MS analysis; type: ADME, tissue-based, Canis lupus familiaris; conditions: read-out: CLH
[22] = Metabolic stability in human liver assessed as intrinsic clearance incubated for 1 hr by LC-MS/MS analysis; type: ADME, tissue-based; conditions: read-out: CLH
[23] = tested on: MV4-11; assay: Induction of cell cycle arrest in human MV4-11 cells assessed as accumulation of cells at G2/M phase at 200 nM incubated for 48 hrs by propidium iodide staining based flow cytometric analysis (reference value: 8%); type: functional
[24] = tested on: CAKI-1; assay: Antiproliferative activity against human CAKI-1 cells assessed as cell growth inhibition measured after 72 hrs by CellTiter-Glo assay; type: functional
[25] = Induction of cell apoptosis in human MV4-11 cells assessed as early apoptotic cells at 200 nM incubated for 48 hrs by Annexin V-FITC/Propidium iodide staining based flow cytometry analysis (reference value: 1.42%); type: functional
[26] = tested on: MV4-11; assay: Induction of cell cycle arrest in human MV4-11 cells assessed as accumulation of cells at G0/G1 phase at 200 nM incubated for 48 hrs by propidium iodide staining based flow cytometric analysis (reference value: 65.71%); type: functional
[27] = Cmax in Sprague-Dawley rat at 10 mg/kg, po by LC-MS/MS analysis; type: ADME, organism-based; parameters: dose 10 mg/kg, route po; conditions: in vivo
[28] = Induction of cell apoptosis in human MV4-11 cells assessed as late apoptotic cells at 200 nM incubated for 48 hrs by Annexin V-FITC/Propidium iodide staining based flow cytometry analysis (reference value: 1.99%); type: functional
[29] = Induction of cell apoptosis in human MV4-11 cells assessed as […] cells at 500 nM incubated for 48 hrs by Annexin V-FITC/Propidium iodide staining based flow cytometry analysis (reference value: 96.6%); type: functional
[30] = Oral bioavailability in Sprague-Dawley rat at 10 mg/kg by LC-MS/MS analysis; type: ADME, organism-based; conditions: in vivo
[31] = tested on: MV4-11; assay: Antitumor activity against human MV4-11 cells xenografted BALB/c nude mouse model assessed as tumor growth inhibition at 40 mg/kg, po QD administered for 28 consecutive days; type: functional; conditions: MV4-11, 672 h, time 28 day, read-out: TGI
[32] = Metabolic stability in dog liver microsomes assessed as intrinsic clearance incubated for 1 hr by LC-MS/MS analysis; type: ADME, Canis lupus familiaris, Microsome; conditions: read-out: CLH
[33] = Metabolic stability in monkey liver assessed as intrinsic clearance incubated for 1 hr by LC-MS/MS analysis; type: ADME, tissue-based, Macaca mulatta; conditions: rhesus monkey, read-out: CLH
[34] = Tmax in Sprague-Dawley rat at 10 mg/kg, po by LC-MS/MS analysis; type: ADME, organism-based; conditions: in vivo
[35] = Induction of cell apoptosis in human MV4-11 cells assessed as […] cells at 1000 nM incubated for 48 hrs by Annexin V-FITC/Propidium iodide staining based flow cytometry analysis (reference value: 96.6%); type: functional
[36] = Metabolic stability in human liver microsomes assessed as elimination half life incubated for 1 hr by LC-MS/MS analysis; type: ADME, Microsome; conditions: read-out: beta t1/2
[37] = tested on: MV4-11; assay: Antitumor activity against human MV4-11 cells xenografted BALB/c nude mouse model assessed as tumor growth inhibition at 80 mg/kg, po QD administered for 28 consecutive days; type: functional; conditions: MV4-11, 672 h, time 28 day, read-out: TGI
[38] = tested on: MV4-11; assay: Induction of cell cycle arrest in human MV4-11 cells assessed as accumulation of cells at G0/G1 phase at 100 nM incubated for 48 hrs by propidium iodide staining based flow cytometric analysis (reference value: 65.71%); type: functional
[39] = tested on: MV4-11; assay: Antiproliferative activity against human MV4-11 cells assessed as cell growth inhibition incubated for 72 hrs by CellTiter-Glo assay; type: functional, cell-based; conditions: MV4-11, 72 h
[40] = Metabolic stability in monkey liver microsomes assessed as elimination half life incubated for 1 hr by LC-MS/MS analysis; type: ADME, Macaca mulatta, Microsome; conditions: rhesus monkey, read-out: beta t1/2

CC(=O)c1c(C)[nH]c(-c2nc3cc(N4CCN(C)CC4)ccc3[nH]2)c1-c1ccccc1
Activity [1]: Dde | half-life [2]: 0.25 h | CLint scaled [3]: 37.6 mL/min/kg | half-life [4]: 4.04 h | GI50 [5]: 0.361 µM | GI50 [6]: 0.274 µM | Activity [7]: 18.26% | C0 [8]: 548 ng/mL | GI50 [9]: 0.261 µM | Activity [10]: 39.3% | clearance [11]: 24.3 mL/min/kg | Activity [12]: 12.2% | microsomal CLint [13]: 16.5 µL/min/mg | half-life [14]: 1.11 h | Activity [15]: 89.7% | half-life [16]: 1.86 h | Activity [17]: 16.9% | microsomal CLint [18]: 20.9 µL/min/mg | AUC(0-inf) [19]: 8050 ng·h/mL | Activity [20]: Active | CLint scaled [21]: 133 mL/min/kg | CLint scaled [22]: 6.64 mL/min/kg | Activity [23]: 2.92% | GI50 [24]: 0.211 µM | Activity [25]: 5.31% | Activity [26]: 87.4% | Cmax [27]: 1270 ng/mL | Activity [28]: 4.78% | Activity [29]: 6.31% | bioavailability [30]: 111% | inhibition in vivo at 40 mg/kg [31]: 103% | microsomal CLint [32]: 92.2 µL/min/mg | CLint scaled [33]: 23.8 mL/min/kg | Tmax [34]: 3.33 h | Activity [35]: 48.2% | half-life [36]: 3.32 h | inhibition in vivo at 80 mg/kg [37]: 34.8% | Activity [38]: 75.41% | IC50 [39]: 0.015 µM | half-life [40]: 1.42 h
